According to the supplement of paper PMC12406974:

Columns and labels:
Experiment in all cases: maximum observed lethal fraction; higher = more cell death
U2OS PTBP1-KO = test system: U2OS PTBP1-KO
U2OS BAX/BAK1 DKO = test system: U2OS BAX/BAK1 DKO
U2OS BCL2L12-KO = test system: U2OS BCL2L12-KO
U2OS = test system: U2OS
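Also: FLICK assay: SYTOX Green fluorescence of dead cells tracked over time after drugging in 96-well plates, with total cell counts taken from Triton X-100 lysed wells.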

| Structure (SMILES) | maximum observed lethal fraction (U2OS PTBP1-KO; 0.316 µM) | maximum observed lethal fraction (U2OS PTBP1-KO; 1 µM) | maximum observed lethal fraction (U2OS PTBP1-KO; 3.16 µM) | maximum observed lethal fraction (U2OS PTBP1-KO; 10 µM) | maximum observed lethal fraction (U2OS PTBP1-KO; 31.6 µM) | maximum observed lethal fraction (U2OS PTBP1-KO; 100 µM) | maximum observed lethal fraction (U2OS PTBP1-KO; 316 µM) | maximum observed lethal fraction (U2OS BAX/BAK1 DKO; 0.316 µM) | maximum observed lethal fraction (U2OS BAX/BAK1 DKO; 1 µM) | maximum observed lethal fraction (U2OS BAX/BAK1 DKO; 3.16 µM) | maximum observed lethal fraction (U2OS BAX/BAK1 DKO; 10 µM) | maximum observed lethal fraction (U2OS BAX/BAK1 DKO; 31.6 µM) | maximum observed lethal fraction (U2OS BAX/BAK1 DKO; 100 µM) | maximum observed lethal fraction (U2OS BAX/BAK1 DKO; 316 µM) | maximum observed lethal fraction (U2OS BCL2L12-KO; 0.316 µM) | maximum observed lethal fraction (U2OS BCL2L12-KO; 1 µM) | maximum observed lethal fraction (U2OS BCL2L12-KO; 3.16 µM) | maximum observed lethal fraction (U2OS BCL2L12-KO; 10 µM) | maximum observed lethal fraction (U2OS BCL2L12-KO; 31.6 µM) | maximum observed lethal fraction (U2OS BCL2L12-KO; 100 µM) | maximum observed lethal fraction (U2OS BCL2L12-KO; 316 µM) | maximum observed lethal fraction (U2OS; 0.316 µM) | maximum observed lethal fraction (U2OS; 1 µM) | maximum observed lethal fraction (U2OS; 3.16 µM) | maximum observed lethal fraction (U2OS; 10 µM) | maximum observed lethal fraction (U2OS; 31.6 µM) | maximum observed lethal fraction (U2OS; 100 µM) | maximum observed lethal fraction (U2OS; 316 µM) | maximum observed lethal fraction (U2OS PTBP1-KO; 0.0316 µM) | maximum observed lethal fraction (U2OS PTBP1-KO; 0.1 µM) | maximum observed lethal fraction (U2OS BAX/BAK1 DKO; 0.0316 µM) | maximum observed lethal fraction (U2OS BAX/BAK1 DKO; 0.1 µM) | maximum observed lethal fraction (U2OS BCL2L12-KO; 0.0316 µM) | maximum observed lethal fraction (U2OS BCL2L12-KO; 0.1 µM) | maximum observed lethal fraction (U2OS; 0.0316 µM) | maximum observed lethal fraction (U2OS; 0.1 µM) | maximum observed lethal fraction (U2OS PTBP1-KO; 0.01 µM) | maximum observed lethal fraction (U2OS BAX/BAK1 DKO; 0.01 µM) | maximum observed lethal fraction (U2OS BCL2L12-KO; 0.01 µM) | maximum observed lethal fraction (U2OS; 0.01 µM) |
| --- | --- | --- | --- | --- | --- | --- | --- | --- | --- | --- | --- | --- | --- | --- | --- | --- | --- | --- | --- | --- | --- | --- | --- | --- | --- | --- | --- | --- | --- | --- | --- | --- | --- | --- | --- | --- | --- | --- | --- | --- |
| COc1ccc(C[C@H]2NC[C@H](O)[C@H]2OC(C)=O)cc1 [Anisomycin] | 0.174 | 0.177 | 0.239 | 0.337 | 0.426 | 0.403 | 0.408 | 0.114 | 0.119 | 0.103 | 0.111 | 0.121 | 0.109 | 0.107 | 0.218 | 0.159 | 0.181 | 0.32 | 0.353 | 0.387 | 0.444 | 0.277 | 0.456 | 0.711 | 0.845 | 0.888 | 0.879 | 0.903 |  |  |  |  |  |  |  |  |  |  |  |  |
| CN(C)CC[C@H](CSc1ccccc1)Nc1ccc(S(=O)(=O)NC(=O)c2ccc(N3CCN(Cc4ccccc4-c4ccc(Cl)cc4)CC3)cc2)cc1[N+](=O)[O-] [ABT-737] | 0.0737 | 0.0836 | 0.13 | 0.38 | 0.617 |  |  | 0.0559 | 0.0569 | 0.0568 | 0.0722 | 0.082 |  |  | 0.0912 | 0.127 | 0.28 | 0.596 | 0.84 |  |  | 0.0818 | 0.115 | 0.189 | 0.462 | 0.788 |  |  | 0.0704 | 0.0736 | 0.0579 | 0.0557 | 0.0733 | 0.076 | 0.0571 | 0.0649 |  |  |  |  |
| C#C[C@@]1(O)[C@@H](CO)O[C@@H](n2ccc(N)nc2=O)[C@@H]1O [Ethynylcytidine] | 0.0904 | 0.101 | 0.329 | 0.244 |  |  |  | 0.0801 | 0.0819 | 0.0878 | 0.0906 |  |  |  | 0.0999 | 0.323 | 0.706 | 0.715 |  |  |  | 0.0947 | 0.523 | 0.868 | 0.787 |  |  |  | 0.0709 | 0.0864 | 0.059 | 0.0745 | 0.0771 | 0.0843 | 0.0612 | 0.071 | 0.0691 | 0.0536 | 0.068 | 0.0536 |
| CN1CC[C@H](c2c(O)cc(O)c3c(=O)cc(-c4ccccc4Cl)oc23)[C@H](O)C1 [Flavopiridol] | 0.198 | 0.282 | 0.247 | 0.198 |  |  |  | 0.0919 | 0.093 | 0.092 | 0.0925 |  |  |  | 0.279 | 0.298 | 0.295 | 0.249 |  |  |  | 0.528 | 0.552 | 0.501 | 0.356 |  |  |  | 0.067 | 0.099 | 0.0712 | 0.208 | 0.0619 | 0.1 | 0.0639 | 0.486 | 0.0606 | 0.0607 | 0.0552 | 0.0575 |
| CN(C)C/C=C/C(=O)Nc1ccc(C(=O)Nc2cccc(Nc3ncc(Cl)c(-c4c[nH]c5ccccc45)n3)c2)cc1 [THZ1] | 0.33 | 0.486 | 0.627 | 0.707 |  |  |  | 0.1 | 0.109 | 0.157 | 0.12 |  |  |  | 0.467 | 0.582 | 0.742 | 0.761 |  |  |  | 0.441 | 0.57 | 0.678 | 0.76 |  |  |  | 0.239 | 0.388 | 0.0981 | 0.0902 | 0.274 | 0.475 | 0.274 | 0.452 | 0.101 | 0.0742 | 0.0888 | 0.0758 |
| O=C(CCCCCCC(=O)Nc1ccccc1)NO [Vorinostat] | 0.0682 | 0.0906 | 0.316 | 0.481 | 0.558 | 0.513 |  | 0.0545 | 0.0635 | 0.0731 | 0.0736 | 0.081 | 0.084 |  | 0.0704 | 0.185 | 0.586 | 0.804 | 0.824 | 0.899 |  | 0.0602 | 0.0901 | 0.458 | 0.659 | 0.778 | 0.811 |  |  | 0.0673 |  | 0.0548 |  | 0.0673 |  | 0.0571 |  |  |  |  |
| Nc1cc(C(F)(F)F)c(-c2cc(N3CCOCC3)nc(N3CCOCC3)n2)cn1 [Buparlisib] | 0.0993 | 0.125 | 0.231 | 0.304 | 0.326 |  |  | 0.0716 | 0.091 | 0.0979 | 0.11 | 0.116 |  |  | 0.0955 | 0.176 | 0.287 | 0.349 | 0.374 |  |  | 0.0748 | 0.109 | 0.275 | 0.463 | 0.513 |  |  | 0.0937 | 0.0916 | 0.0655 | 0.0661 | 0.0818 | 0.0866 | 0.0663 | 0.0713 |  |  |  |  |
